Experimental findings from ChEMBL document CHEMBL5042474, “Structure-Guided Discovery of Potent and Selective DYRK1A Inhibitors” (J Med Chem, 2021) are described below.

For data set [1], the target named is T1, Dual specificity tyrosine-phosphorylation-regulated kinase 2 (Homo sapiens, UniProt Q92630).
T1 sequence (Q92630 whole entry): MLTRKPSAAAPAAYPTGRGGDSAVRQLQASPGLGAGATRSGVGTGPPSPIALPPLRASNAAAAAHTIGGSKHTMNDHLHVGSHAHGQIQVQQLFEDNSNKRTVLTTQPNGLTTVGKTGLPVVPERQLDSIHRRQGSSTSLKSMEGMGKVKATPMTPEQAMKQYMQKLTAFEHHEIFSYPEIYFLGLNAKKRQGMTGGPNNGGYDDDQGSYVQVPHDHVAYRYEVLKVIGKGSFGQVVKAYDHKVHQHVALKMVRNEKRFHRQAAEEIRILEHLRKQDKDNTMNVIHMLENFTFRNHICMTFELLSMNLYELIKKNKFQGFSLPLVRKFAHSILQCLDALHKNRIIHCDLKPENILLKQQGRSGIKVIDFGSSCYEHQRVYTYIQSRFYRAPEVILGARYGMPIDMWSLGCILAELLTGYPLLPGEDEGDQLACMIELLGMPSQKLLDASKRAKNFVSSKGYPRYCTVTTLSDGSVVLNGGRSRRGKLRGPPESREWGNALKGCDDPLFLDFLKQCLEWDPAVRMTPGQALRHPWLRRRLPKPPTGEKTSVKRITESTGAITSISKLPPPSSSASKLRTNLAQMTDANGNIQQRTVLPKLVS
The experiment in a line: Inhibition of DYRK2 (unknown origin) using Ulight-MBP as substrate and ATP as co-substrate incubated for 40 mins and measured after 1 hr by TR-FRET assay. (In general: In TR-FRET formats the signal depends on donor and acceptor labels being close together.)

In data set [2] the test system is RS4-11. The experiment in a line: Antitumor activity against human RS4-11 cells xenografted in BALB/c nu/nu mouse assessed as reduction in DYRK1A autophosphorylation of S520 residue at 3.125 mg/kg, po measured after 2 hrs by western blotting analysis relative to control. It counts as functional. Details: scale not given: the % may be the effect or the level left. (In general: Xenograft models place foreign cells or tissue in a host animal.)

Data set [3] has as its system RS4-11. The experiment in a line: Antitumor activity against human RS4-11 cells xenografted in BALB/c nu/nu mouse assessed as reduction in DYRK1A autophosphorylation of S520 residue at 6.25 mg/kg, po measured after 2 hrs by western blotting analysis relative to control. Format: functional. The arrangement: scale not given: the % may be the effect or the level left.

Data set [4] has as its system A2780. As to the kind of experiment: Antitumor activity against human A2780 cells xenografted in BALB/c nu/nu mouse assessed as reduction in DYRK1A autophosphorylation of S520 residue at 4.687 mg/kg, po measured after 2 hrs by western blotting analysis relative to control. It counts as functional. The arrangement: scale not given: the % may be the effect or the level left.

Data set [5] has as its system A2780. The experiment in a line: Antitumor activity against human A2780 cells xenografted in BALB/c nu/nu mouse assessed as reduction in DYRK1A autophosphorylation of S520 residue at 9.375 mg/kg, po measured after 2 hrs by western blotting analysis relative to control. Format: functional. The arrangement: scale not given: the % may be the effect or the level left.
Data set [6] has as its system A2780. As to the kind of experiment: Antitumor activity against human A2780 cells xenografted in BALB/c nu/nu mouse assessed as reduction in DYRK1A autophosphorylation of S520 residue at 18.75 mg/kg, po measured after 6 hrs by western blotting analysis relative to control. It counts as functional. The arrangement: scale not given: the % may be the effect or the level left.

Data set [7] deals with A2780. As to the kind of experiment: Antitumor activity against human A2780 cells xenografted in BALB/c […] mouse assessed as reduction in DYRK1A autophosphorylation of S520 residue at 75 mg/kg, po measured after 2 hrs by western blotting analysis relative to control. It counts as functional. The arrangement: scale not given: the % may be the effect or the level left.
For data set [8], the system named is A2780. The experiment in a line: Antitumor activity against human A2780 cells xenografted in Balb/c mouse assessed as inhibition of tumor growth at 18.75 mg/kg, po bid for 14 days relative to control. Format: functional. The settings on record: 336 h, time 14 day, read-out: TGI.
Data set [9] has as its system A2780. As to the kind of experiment: Antitumor activity against human A2780 cells xenografted in Balb/c mouse assessed as inhibition of tumor growth at 37.5 mg/kg, po bid for 14 days relative to control. Format: functional. Conditions: 336 h, time 14 day, read-out: TGI.
Data set [10] has as its system A2780. The experiment in a line: Antitumor activity against human A2780 cells xenografted in Balb/c mouse assessed as inhibition of tumor growth at 75 mg/kg, po bid for 14 days relative to control. Conditions: 336 h, time 14 day, read-out: TGI. It counts as functional.
Data set [11] in a line: Toxicity in Balb/c nude mouse xenografted with human A2780 cells assessed as decrease in body weight at 4.75 mg/kg, po bid for 14 days relative to control. Format: organism-based. Details: scale not given: the % may be the effect or the level left. The settings on record: in vivo, 336 h, time 14 day.
Data set [12] in a line: Toxicity in Balb/c nude mouse xenografted with human A2780 cells assessed as decrease in body weight at 37.5 mg/kg, po bid for 14 days relative to control. Format: organism-based. Details: scale not given: the % may be the effect or the level left. The settings on record: in vivo, 336 h, time 14 day.
Data set [13] in a line: Toxicity in Balb/c nude mouse xenografted with human A2780 cells assessed as decrease in body weight at 75 mg/kg, po bid for 14 days relative to control. The arrangement: scale not given: the % may be the effect or the level left. It counts as organism-based. Conditions: in vivo, 336 h, time 14 day.
Data set [14] relates to A2780. As to the kind of experiment: Antitumour activity against human A2780 cells xenografted in mouse assessed as reduction in DYRK1A autophosphorylation of S520 residue at 4.687 mg/kg, po meausred after 6 hrs by western blotting analysis relative to control. Format: functional. The arrangement: scale not given: the % may be the effect or the level left.
The test system of data set [15] is C-33-A. The experiment in a line: cells. The settings on record: Homo sapiens, 120 h.
Data set [16] has as its system A2780. As to the kind of experiment: cells. Conditions: Homo sapiens.
The test system of data set [17] is C-33-A. As to the kind of experiment: cells. The settings on record: Homo sapiens.
The subject of data set [18] is A2780. The experiment in a line: Antitumor activity against human A2780 cells xenografted in Balb/c mouse assessed as tumor volume T/C at 75 mg/kg, po bid for 14 days relative to control. Conditions: time 14 day.
In data set [19] the test system is A2780. The experiment in a line: Antitumour activity against human A2780 cells xenografted in Balb/c mouse assessed as tumor volume T/C at 18.75 mg/kg, po bid for 14 days relative to control. Conditions: time 14 day.
Data set [20] deals with Dual specificity protein kinase CLK2 (Homo sapiens) (UniProt P49760). As to the kind of experiment: Residual activity of CLK2 (unknown origin) at 10 nM using Ulight-MBP as substrate and ATP as co-substrate incubated for 40 mins and measured after 1 hr by TR-FRET assay relative to control. The settings on record: time 100.0 min.
Sequence of Dual specificity protein kinase CLK2 (Homo sapiens) (P49760 whole entry, looked up): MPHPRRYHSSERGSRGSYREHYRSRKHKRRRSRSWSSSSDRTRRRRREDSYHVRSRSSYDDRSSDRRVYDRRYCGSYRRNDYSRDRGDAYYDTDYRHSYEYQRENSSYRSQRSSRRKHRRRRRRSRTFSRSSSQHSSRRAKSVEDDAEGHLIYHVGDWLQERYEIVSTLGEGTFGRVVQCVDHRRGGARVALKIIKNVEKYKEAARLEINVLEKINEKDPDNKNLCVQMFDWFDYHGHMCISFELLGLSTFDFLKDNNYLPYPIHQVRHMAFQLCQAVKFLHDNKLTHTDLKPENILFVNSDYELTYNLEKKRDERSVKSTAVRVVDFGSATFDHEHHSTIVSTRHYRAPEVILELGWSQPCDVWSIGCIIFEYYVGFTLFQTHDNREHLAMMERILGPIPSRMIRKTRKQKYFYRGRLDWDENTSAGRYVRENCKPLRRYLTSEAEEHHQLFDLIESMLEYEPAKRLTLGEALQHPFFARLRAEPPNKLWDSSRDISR
For data set [21], the target named is T2, Dual specificity tyrosine-phosphorylation-regulated kinase 2 (Homo sapiens) (UniProt Q92630).
T2 sequence (whole entry): T1 sequence (Q92630 whole entry)
The experiment in a line: Residual activity of DYRK2 (unknown origin) at 10 nM using Ulight-MBP as substrate and ATP as co-substrate incubated for 40 mins and measured after 1 hr by TR-FRET assay relative to control. Conditions: time 100.0 min.

Data set [22] concerns the target Casein kinase I isoform gamma-1 (Homo sapiens) (UniProt Q9HCP0). The experiment in a line: Residual activity of CSNK1G1 (unknown origin) at 10 nM using Ulight-MBP as substrate and ATP as co-substrate incubated for 40 mins and measured after 1 hr by TR-FRET assay relative to control. The settings on record: time 100.0 min.
The target of data set [23] is Ribosomal protein S6 kinase alpha-4 (Homo sapiens) (UniProt O75676). The experiment in a line: Residual activity of RPS6KA4 (unknown origin) at 10 nM using Ulight-MBP as substrate and ATP as co-substrate incubated for 40 mins and measured after 1 hr by TR-FRET assay relative to control. Conditions: time 100.0 min.
Sequence of Ribosomal protein S6 kinase alpha-4 (Homo sapiens) (O75676 whole entry, looked up): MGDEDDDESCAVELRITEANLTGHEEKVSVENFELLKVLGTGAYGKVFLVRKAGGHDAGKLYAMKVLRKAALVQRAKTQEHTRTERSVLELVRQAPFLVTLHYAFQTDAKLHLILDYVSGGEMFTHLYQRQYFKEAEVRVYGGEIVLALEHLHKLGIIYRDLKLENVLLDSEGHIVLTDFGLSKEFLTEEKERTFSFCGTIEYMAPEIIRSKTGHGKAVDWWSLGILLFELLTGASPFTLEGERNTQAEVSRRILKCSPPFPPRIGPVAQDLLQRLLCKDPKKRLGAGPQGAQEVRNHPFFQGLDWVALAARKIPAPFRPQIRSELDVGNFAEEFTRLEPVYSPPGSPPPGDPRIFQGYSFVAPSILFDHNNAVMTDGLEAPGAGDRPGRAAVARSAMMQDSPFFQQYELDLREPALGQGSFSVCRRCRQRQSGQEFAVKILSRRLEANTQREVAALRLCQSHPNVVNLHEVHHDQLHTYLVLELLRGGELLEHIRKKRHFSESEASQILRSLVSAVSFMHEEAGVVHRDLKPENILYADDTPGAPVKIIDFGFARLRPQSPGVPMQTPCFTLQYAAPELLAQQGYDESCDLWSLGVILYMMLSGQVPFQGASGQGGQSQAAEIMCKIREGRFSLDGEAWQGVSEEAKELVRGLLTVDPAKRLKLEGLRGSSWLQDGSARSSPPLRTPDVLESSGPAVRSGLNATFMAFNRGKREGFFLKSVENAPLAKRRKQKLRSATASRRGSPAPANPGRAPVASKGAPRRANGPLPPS

Structures are written as SMILES. pIC50: −log10 of the molar value.

Sequence of Casein kinase I isoform gamma-1 (Homo sapiens) (Q9HCP0 whole entry, looked up, canonical isoform): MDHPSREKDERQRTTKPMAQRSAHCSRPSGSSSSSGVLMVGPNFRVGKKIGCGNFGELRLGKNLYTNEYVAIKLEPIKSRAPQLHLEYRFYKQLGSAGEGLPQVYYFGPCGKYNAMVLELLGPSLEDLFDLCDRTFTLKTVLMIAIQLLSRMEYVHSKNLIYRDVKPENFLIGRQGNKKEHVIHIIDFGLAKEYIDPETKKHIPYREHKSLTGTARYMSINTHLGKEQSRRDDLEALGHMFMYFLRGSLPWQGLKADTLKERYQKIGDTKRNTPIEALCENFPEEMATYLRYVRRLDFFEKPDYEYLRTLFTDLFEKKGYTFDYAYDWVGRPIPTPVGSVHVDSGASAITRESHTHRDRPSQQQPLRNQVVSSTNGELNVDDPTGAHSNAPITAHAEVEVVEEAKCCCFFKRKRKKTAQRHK

In general, pIC50 refers to the IC50 on a negative log10 scale, so that one unit is a factor of ten. What is called T/C is the result in the treated group divided by that in the control group, in per cent. For orientation: residual activity means what remains of the control signal, in per cent. With `Cc1nc2ccc(-c3cc(N)nc(N)c3)nc2n1C1CC1`, the pIC50 was 8.52 in data set [1], 5.99 with C-33-A [15], 6.90 in the data set with A2780 [16] and 6.80 in the data set on C-33-A [17]. The Activity is on record as 51% in the data set with RS4-11 [2]; 77% in the data set on RS4-11 [3]; 60% with A2780 [4]; 60% in the data set on A2780 [5]; 80% in the data set on A2780 [6]; 80% with A2780 [7]. The Activity stood at 1.5% in data set [11], 9.7% in data set [12], 16.3% in [13] and 0% with A2780 [14]. Moreover, the inhibition in vivo at 18.75 mg/kg in the data set with A2780 [8] worked out at 55%. Also, the inhibition in vivo at 37.5 mg/kg in the data set on A2780 [9] turned out to be 63%. Besides, in the data set on A2780 [10], the inhibition in vivo at 75 mg/kg worked out at 92%. The T/C in the data set with A2780 [18] amounted to 24%; in the data set with A2780 [19] it was 63%. For the same molecule, the residual activity in [20] was 40%; in data set [21], 1.6%; in data set [22], 69%; in data set [23] it was 61%.
